From patent publication US5939523A, “Purification of dalbaheptide antibiotics by isoelectric focusing” (Gruppo Lepetit SpA, priority 1995, dated 1999)

Experiment: Analytical immobilized pH gradient (IPG) gels for determining pI values
Format: physicochemical
Conditions: analytical IPG gel, pH interval 8.0 to 9.0, mixture of 8M urea and 1% CHAPS
Text: Preparation of Analytical Immobilized pH Gradient (IPG) Gels, for Determining the pI Values of the Main Component and of the Impurities
Gel dimension: 25×10 cm, 0, 5 mm thick; pH interval: 7.0 to 10.0.
The IPG ranges are set in a 5% T, 4% C polyacrylamide matrix, according to the preparation recipe disclosed in Ref. 110. After preparing the two limiting, acidic and basic mixtures, they are titrated (with a weak acid and a weak base) to pH values close to neutrality. This is important in order to ensure uniform polymerization and efficient monomer conversion throughout the preformed pH gradient. Upon gel washing in distilled water (3×30 min), all added titrants (as well as catalysts and ungrafted monomers) are efficiently removed. The gels are then equilibrated for 30 min in 2% glycerol solution, dried in air and reswollen in a mixture of 8M urea and 3.5% CHAPS, overnight. The sample is applied in surface wells at the anodic gel side in concentrations from 80 to 600 μg/track. […]
For exactly determining the pI value of the amide derivative of factor B0 and factor B1, the above procedure is repeated under the same conditions, in the pH interval from 8.0 to 9.0 using a mixture of 8M urea and 1% CHAPS. The so determined pI value of the amide derivative of factor B0 is 8.56, whilst the pI value of the amide derivative of factor B1 is 8.40.

Substance	pI value
6^B -decarboxy-6^B -(hydroxymethyl)-N^63 -3-(dimethyl-amino)propyl amide derivative of antibiotic A40926 factor B1 [amide derivative of factor B1]	8.40
6^B -decarboxy-6^B -(hydroxymethyl)-N^63 -3-(dimethyl-amino)propyl amide derivative of antibiotic A40926 factor B0 [amide derivative of factor B0]	8.56
